# System: alopecia areata
# Assay: Efficacy and safety of upadacitinib in AD patients with concomitant alopecia areata (SALT, AA-IGA)
# Type: in vivo, human
# Excerpt: According to data reported in the patient clinical report forms by each investigator, all AD patients who were concomitantly suffering from alopecia areata at the baseline visit were identified. Medical records included demographic characteristics such as age, sex, occupation, smoking habits (smoker, former smoker, or non-smoker), AD history and severity, alopecia areata history and severity, prior treatments, atopic and non-atopic comorbidities, serum IgE levels, and concomitant therapies.
# Patients were evaluated at baseline, and follow-up visits were scheduled after 4 weeks from baseline, and every 12 weeks thereafter. At baseline and at each follow-up visit, AD severity was assessed by Eczema Area and Severity Index (EASI) together with other tools. To evaluate severity and treatment response of alopecia areata, Severity of Alopecia Tool (SALT) and Alopecia Areata-Investigator Global Assessment (AA-IGA) were performed, as commonly used in daily practice. […] The SALT change throughout the observation period was recorded as the difference between the baseline SALT score and the SALT score value calculated at each follow-up visit (A SALT).
# Qualitative and quantitative variables were described as relative frequencies (%), mean and standard deviation (or medians and interquartile ranges [IR], as appropriate), respectively. […] Data are reported and analysed “as observed”. […]
smiles,measurement,setting,value
"CC[C@@H]1CN(C(=O)NCC(F)(F)F)C[C@@H]1c1cnc2cnc3[nH]ccc3n12 [upadacitinib, (3S,4R)-3-ethyl-4-(3H-imidazo[1,2-a]pyrrolo[2,3-e]pyrazin-8-yl)-N-(2,2,2-trifluoroethyl)pyrrolidine-1-carboxamide]",predicted SALT reduction for each 1-unit increase in the age of alopecia areata onset,"multivariable regression, independent of baseline SALT and sex",2.1 point
same,patients with clinically meaningful hair regrowth (achievement of at least SALT 50 response),"upadacitinib 30 mg once daily, after 4 weeks of treatment",about 16%

# Reference: patent publication US20250049789A1, “METHODS OF TREATING ALOPECIA ARAETA” (AbbVie Inc., priority 2023, published 2025)
